Earlier results as cited in PubChem BioAssay AID1259409 (Chemical Carcinogenesis Research Information System (CCRIS), 2018).

System: rodent chemically induced tumor inhibition, incidence and multiplicity
Assay: CCRIS tumor inhibitor studies
Details: Dose [Inhibitor]: 0, Route [Inhibitor]: ORAL, Species: RAT, Strain/Sex: ACI/N/MALE, Promoter: NONE USED

C=CC/C(=N/OS(=O)(=O)O)S[C@@H]1O[C@H](CO)[C@@H](O)[C@H](O)[C@H]1O
tumour outcome (control, treated, inhibition, significance) (Carcinogen: 4-NITROQUINOLINE-1-OXIDE, 56-57-5, 1200 PPM IN DIET BEGINNING 1 WK POST CARCINOGEN TREATMENT AND CONTINUING FOR 23 WK (STUDY DURATION: 37 WK), Target Tissue: Type of Lesion: TONGUE: CARCINOMA, Dose [Carcinogen]: 10 PPM IN DRINKING WATER FOR 12 WK): 12/17 (71%), 0/15 (0%), 100%, p 0.0003 | tumour outcome (control, treated, inhibition, significance) (Carcinogen: 4-NITROQUINOLINE-1-OXIDE, 56-57-5, 1200 PPM IN DIET BEGINNING 1 WK POST CARCINOGEN TREATMENT AND CONTINUING FOR 23 WK (STUDY DURATION: 37 WK), Target Tissue: Type of Lesion: TONGUE: PAPILLOMA, Dose [Carcinogen]: 10 PPM IN DRINKING WATER FOR 12 WK): 5/17 (29%), 2/15 (13%), 55%, not calculated | tumour outcome (control, treated, inhibition, significance) (Carcinogen: 4-NITROQUINOLINE-1-OXIDE, 56-57-5, 1200 PPM IN DIET BEGINNING 1 WK PRIOR TO CARCINOGEN TREATMENT AND CONTINUING FOR 1 WK POST CARCINOGEN TREATMENT (STUD, Target Tissue: Type of Lesion: TONGUE: CARCINOMA, Dose [Carcinogen]: 10 PPM IN DRINKING WATER FOR 12 WK): 12/17 (71%), 0/15 (0%), 100%, p 0.00003 | tumour outcome (control, treated, inhibition, significance) (Carcinogen: 4-NITROQUINOLINE-1-OXIDE, 56-57-5, 1200 PPM IN DIET BEGINNING 1 WK PRIOR TO CARCINOGEN TREATMENT AND CONTINUING FOR 1 WK POST CARCINOGEN TREATMENT (STUD, Target Tissue: Type of Lesion: TONGUE: PAPILLOMA, Dose [Carcinogen]: 10 PPM IN DRINKING WATER FOR 12 WK): 5/17 (29%), 1/15 (7%), 76%, not calculated | tumour outcome (control, treated, inhibition, significance) (Carcinogen: DIETHYLNITROSAMINE, 55-18-5, 1200 PPM IN DIET BEGINNING 1 WK PRIOR TO FIRST CARCINOGEN DOSE AND CONTINUING TO 1 WK POST LAST CARCINOGEN DOSE (STUD, Target Tissue: Type of Lesion: LIVER: ADENOMA, Dose [Carcinogen]: 40 PPM IN DRINKING WATER FOR 5 WK): 10/10 (100%), 2/12 (17%), 83%, p<0.0002 | tumour outcome (control, treated, inhibition, significance) (Carcinogen: DIETHYLNITROSAMINE, 55-18-5, 1200 PPM IN DIET BEGINNING 1 WK PRIOR TO FIRST CARCINOGEN DOSE AND CONTINUING TO 1 WK POST LAST CARCINOGEN DOSE (STUD, Target Tissue: Type of Lesion: LIVER: CARCINOMA, Dose [Carcinogen]: 40 PPM IN DRINKING WATER FOR 5 WK): 10/10 (100%), 4/12 (33%), 67%, p<0.002
